Measurements reported in PubChem BioAssay (NCI).
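Following 48 hours of exposure in 96-well plates, responses at five concentrations were used to interpolate endpoints linearly. Abbreviation: GI50, concentration required for 50% inhibition of growth. At the TGI there is no net growth.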

How the values were obtained:
Test in all cases: inhibition of tumour cell growth, NCI panel, 48 h
LOX IMVI melanoma = test system: LOX IMVI melanoma
HOP-92 NSCLC = test system: HOP-92 NSCLC
MDA-MB-435 = test system: MDA-MB-435
SNB-75 CNS = test system: SNB-75 CNS
HT29 colon = test system: HT29 colon
OVCAR-8 ovarian = test system: OVCAR-8 ovarian
MCF7 breast = test system: MCF7 breast
EKVX NSCLC = test system: EKVX NSCLC
HS 578T breast = test system: HS 578T breast
NCI-H460 lung = test system: NCI-H460 lung

SMILES	TGI (LOX IMVI melanoma) [µM]	TGI (HOP-92 NSCLC) [µM]	TGI (MDA-MB-435) [µM]	TGI (SNB-75 CNS) [µM]	TGI (HT29 colon) [µM]	TGI (OVCAR-8 ovarian) [µM]	TGI (MCF7 breast) [µM]	TGI (EKVX NSCLC) [µM]	TGI (HS 578T breast) [µM]	TGI (NCI-H460 lung) [µM]	GI50 (LOX IMVI melanoma) [µM]	GI50 (HOP-92 NSCLC) [µM]	GI50 (SNB-75 CNS) [µM]	GI50 (HT29 colon) [µM]	GI50 (OVCAR-8 ovarian) [µM]	GI50 (NCI-H460 lung) [µM]	GI50 (MCF7 breast) [µM]	GI50 (EKVX NSCLC) [µM]
COc1cc(S(=O)(=O)N/N=C/c2cc(Br)c(O)c(OC)c2)c(OC)cc1NC(C)=O	> 100	> 100	> 100	> 100	> 100	> 100	> 100	> 100	–	–	–	–	–	–	–	–	–	–
COc1ccc(NS(=O)c2cccc(C)c2)cc1 (stereo not given)	> 100	–	> 100	> 100	> 100	> 100	> 100	> 100	> 100	> 100	–	–	–	–	–	–	–	–
CC(C)CC(NC(=O)C(COc1ccc([N+](=O)[O-])cc1)Cc1ccccc1)C(=O)Nc1ccccc1 (stereo not given)	> 100	34.2	> 100	7.84	–	27.4	> 100	91.4	–	13.2	–	–	–	–	–	–	–	–
O=C1OC2C=CC1C1(CCOC1=O)C2 (stereo not given)	> 100	> 100	–	> 100	–	> 100	–	> 100	–	> 100	–	–	–	–	–	–	–	–
CCCCCCCCCCCCCCCCNc1ccn(C2CC(OP(=O)(O)OCC3OC(n4cc(CC)c(=O)[nH]c4=O)CC3O)C(CO)O2)c(=O)n1 (stereo not given)	> 100	> 100	> 100	81.1	46.1	43.6	> 100	> 100	67.1	–	–	–	–	–	–	–	–	–
CC(=O)[C@H]1CCC2[C@@H]3CC=C4C(O)C(OS(=O)(=O)O)CC[C@]4(C)C3CC[C@@]21C (stereo not given in full)	> 100	> 100	–	> 100	> 100	> 100	> 100	> 100	–	> 100	–	–	–	–	–	–	–	–
CN(CCN(C)C(=O)CCn1ccc(=O)[nH]c1=O)C(=O)CCn1ccc(=O)[nH]c1=O	> 100	–	–	> 100	> 100	> 100	–	> 100	–	> 100	–	–	–	–	–	–	–	–
O=C(C=P(c1ccccc1)(c1ccccc1)c1ccccc1)c1ccc(-c2ccc(F)cc2F)cc1	–	7.24	5.79	–	3.94	–	7.95	11	28.3	4.09	–	–	–	–	–	–	–	–
CC1OC=CC(=O)C1O (stereo not given)	> 100	> 100	–	> 100	> 100	> 100	–	> 100	–	> 100	–	–	–	–	–	–	–	–
O=c1/c(=C/c2ccc(-c3ccc(Cl)cc3Cl)o2)sc2n1[C@@H](c1ccc3c(c1)OCO3)C=C(c1cc(F)c(Cl)cc1Cl)N=2	> 100	95.5	> 100	> 100	74.7	> 100	> 100	–	> 100	> 100	–	–	–	–	–	–	–	–
O=C(O)CCCc1ccc2c(c1)CC1(C2)Cc2ccc(CCCC(=O)O)cc2C1	> 100	> 100	> 100	–	> 100	> 100	> 100	> 100	> 100	–	–	–	–	–	–	–	–	–
CCOC(=O)c1cn(C)nc1N/C(C)=C\C(=O)c1ccccc1	> 100	> 100	> 100	–	> 100	> 100	> 100	> 100	> 100	> 100	–	–	–	–	–	–	–	–
C/C(=C\c1ccccc1)C(=O)NCc1ccc(C(=O)NCCc2c[nH]c3ccccc23)cc1	> 100	> 100	> 100	> 100	> 100	> 100	> 100	> 100	–	> 100	–	–	–	–	–	–	–	–
NC1CCCCC1N.O=S(=O)([O-])CCCN1CCN(CCO)CC1.O=S(=O)([O-])CCCN1CCN(CCO)CC1.[Pt+4]	> 100	59.3	–	> 100	> 22.1	> 100	> 100	> 100	–	> 46	5.97	19	> 39.9	0.945	2.78	1.15	3.26	55.4
COc1ccc(NC(=S)NNC(=O)c2cc(-c3ccccc3)nc3ccccc23)cc1	–	31.9	13.4	70.3	39.3	38.9	17	–	75.5	35.9	–	–	–	–	–	–	–	–
COc1cccc(C2CC(=O)c3cccn32)c1 (stereo not given)	> 100	> 100	> 100	> 100	> 100	> 100	> 100	> 100	> 100	–	–	–	–	–	–	–	–	–
O=S(=O)(O)c1ccc(Nc2ccnc3cc(Cl)ccc23)cc1	> 100	> 100	> 100	> 100	> 100	> 100	> 100	> 100	> 100	–	–	–	–	–	–	–	–	–
CCOC(=O)C1=C(C)N(c2ccc(C)cc2)C2(O)C=CC(=O)C3=C(O)c4ccccc4C(=O)C312 (stereo not given)	96.8	45.4	> 100	68.6	65.9	> 100	63	> 100	–	> 100	–	–	–	–	–	–	–	–
O=C(NCCCCNCCCNC(=O)OCc1ccccc1)OCc1ccccc1	–	87.3	> 100	89.4	37.7	67.1	71.2	> 100	88.8	69	–	–	–	–	–	–	–	–
CC(=O)O[C@H]1C(=O)[C@@]2(C)C(C(OC(=O)c3ccccc3)[C@]3(O)CC(OC(=O)C(O)C(NC(=O)c4ccccc4)c4ccc(C)cc4)C(C)=C1C3(C)C)[C@]1(OC(C)=O)CO[C@@H]1C[C@@H]2O (stereo not given in full)	6.75	11.3	–	1.31	0.0861	1.01	–	> 25	–	> 25	–	–	–	–	–	–	–	–
Cc1nnc2sc(-c3ccc([N+](=O)[O-])o3)nn12	16.1	35.2	17.5	–	34.7	27.5	26.5	37.7	> 100	49.4	–	–	–	–	–	–	–	–
Oc1ccc2ccccc2c1OCc1nnc(CCCCCCCCc2nnc(COc3c(O)ccc4ccccc34)o2)o1	–	> 100	> 100	> 100	> 100	–	> 100	> 100	–	> 100	–	–	–	–	–	–	–	–
CC(C)c1nccn1Cc1ccc(Cl)cc1Cl	> 100	> 100	> 100	85	> 100	> 100	> 100	> 100	–	> 100	–	–	–	–	–	–	–	–
